Experimental data: publication PMC7026418, “The kinase polypharmacology landscape of clinical PARP inhibitors” (Scientific Reports, 2020)
Where two headings read alike, the source gives them in different places. Values belong to the compound of their own block, whether it stands above or below them.

Legend:
Test in all cases: biochemical
Design in all cases: DiscoveRx KINOMEscan active site-directed competition binding; percent of control kinase bound to immobilised ligand
BMPR1A = BMPR1A (Homo sapiens, UniProt P36894)
CAMKK2 = CAMKK2 (Homo sapiens, UniProt Q96RR4)
CDK4-cyclinD1 = biological target: T1, CDK4-cyclinD1 (Homo sapiens, UniProt P11802)
T1 construct: cyclinD1
T1 sequence (P11802 whole entry): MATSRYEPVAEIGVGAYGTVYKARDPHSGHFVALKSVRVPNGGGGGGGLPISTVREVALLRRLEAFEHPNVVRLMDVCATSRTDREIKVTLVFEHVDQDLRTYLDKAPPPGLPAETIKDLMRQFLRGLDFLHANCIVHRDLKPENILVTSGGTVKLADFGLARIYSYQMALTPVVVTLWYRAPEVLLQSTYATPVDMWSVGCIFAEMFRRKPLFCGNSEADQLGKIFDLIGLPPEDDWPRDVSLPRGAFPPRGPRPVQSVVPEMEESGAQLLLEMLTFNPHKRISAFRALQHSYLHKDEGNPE
T1 sequence (P24385 whole entry partner): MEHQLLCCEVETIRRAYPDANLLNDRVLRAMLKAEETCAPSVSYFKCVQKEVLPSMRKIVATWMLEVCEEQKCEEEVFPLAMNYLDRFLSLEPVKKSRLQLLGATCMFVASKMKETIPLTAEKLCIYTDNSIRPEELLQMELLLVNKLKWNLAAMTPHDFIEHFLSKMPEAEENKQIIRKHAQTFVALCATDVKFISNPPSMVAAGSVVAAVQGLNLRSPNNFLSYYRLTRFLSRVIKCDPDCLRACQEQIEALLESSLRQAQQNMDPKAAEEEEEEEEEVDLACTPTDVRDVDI

CDKL1 = CDKL1 (Homo sapiens, UniProt Q00532)
Sequence of CDKL1 (Q00532 whole entry): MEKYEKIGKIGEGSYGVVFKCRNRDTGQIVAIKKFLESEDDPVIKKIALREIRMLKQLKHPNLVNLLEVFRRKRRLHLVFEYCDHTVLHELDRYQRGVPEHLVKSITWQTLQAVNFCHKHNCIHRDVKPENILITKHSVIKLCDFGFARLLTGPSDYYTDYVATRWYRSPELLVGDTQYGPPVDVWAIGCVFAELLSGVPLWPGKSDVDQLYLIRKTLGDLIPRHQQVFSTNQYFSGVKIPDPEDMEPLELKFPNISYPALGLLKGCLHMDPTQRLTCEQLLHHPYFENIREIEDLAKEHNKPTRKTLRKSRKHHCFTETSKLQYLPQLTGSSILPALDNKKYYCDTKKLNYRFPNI

ERK4 = biological target: T2, ERK4 (Homo sapiens, UniProt P31152)
T2 construct: gene MAPK4
T2 sequence (P31152 whole entry): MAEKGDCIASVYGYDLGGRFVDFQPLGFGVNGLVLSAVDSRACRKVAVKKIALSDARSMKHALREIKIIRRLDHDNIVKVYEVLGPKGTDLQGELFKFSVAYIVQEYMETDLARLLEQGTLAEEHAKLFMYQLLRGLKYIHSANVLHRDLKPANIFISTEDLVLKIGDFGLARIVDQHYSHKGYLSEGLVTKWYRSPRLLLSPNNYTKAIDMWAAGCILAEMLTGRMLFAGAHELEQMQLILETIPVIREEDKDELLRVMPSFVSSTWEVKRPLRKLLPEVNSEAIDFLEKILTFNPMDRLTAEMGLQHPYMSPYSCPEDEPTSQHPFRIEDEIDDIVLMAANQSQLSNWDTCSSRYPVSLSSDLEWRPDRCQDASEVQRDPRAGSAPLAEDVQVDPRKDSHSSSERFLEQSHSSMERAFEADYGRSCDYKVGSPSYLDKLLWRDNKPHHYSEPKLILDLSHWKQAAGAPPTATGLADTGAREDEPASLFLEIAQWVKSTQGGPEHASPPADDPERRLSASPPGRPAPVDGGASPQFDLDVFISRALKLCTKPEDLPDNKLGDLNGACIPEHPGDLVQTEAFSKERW

KIT(V559D) = KIT(V559D) (Homo sapiens, UniProt P10721, V559D)
Sequence of KIT(V559D) (P10721 whole entry V559D): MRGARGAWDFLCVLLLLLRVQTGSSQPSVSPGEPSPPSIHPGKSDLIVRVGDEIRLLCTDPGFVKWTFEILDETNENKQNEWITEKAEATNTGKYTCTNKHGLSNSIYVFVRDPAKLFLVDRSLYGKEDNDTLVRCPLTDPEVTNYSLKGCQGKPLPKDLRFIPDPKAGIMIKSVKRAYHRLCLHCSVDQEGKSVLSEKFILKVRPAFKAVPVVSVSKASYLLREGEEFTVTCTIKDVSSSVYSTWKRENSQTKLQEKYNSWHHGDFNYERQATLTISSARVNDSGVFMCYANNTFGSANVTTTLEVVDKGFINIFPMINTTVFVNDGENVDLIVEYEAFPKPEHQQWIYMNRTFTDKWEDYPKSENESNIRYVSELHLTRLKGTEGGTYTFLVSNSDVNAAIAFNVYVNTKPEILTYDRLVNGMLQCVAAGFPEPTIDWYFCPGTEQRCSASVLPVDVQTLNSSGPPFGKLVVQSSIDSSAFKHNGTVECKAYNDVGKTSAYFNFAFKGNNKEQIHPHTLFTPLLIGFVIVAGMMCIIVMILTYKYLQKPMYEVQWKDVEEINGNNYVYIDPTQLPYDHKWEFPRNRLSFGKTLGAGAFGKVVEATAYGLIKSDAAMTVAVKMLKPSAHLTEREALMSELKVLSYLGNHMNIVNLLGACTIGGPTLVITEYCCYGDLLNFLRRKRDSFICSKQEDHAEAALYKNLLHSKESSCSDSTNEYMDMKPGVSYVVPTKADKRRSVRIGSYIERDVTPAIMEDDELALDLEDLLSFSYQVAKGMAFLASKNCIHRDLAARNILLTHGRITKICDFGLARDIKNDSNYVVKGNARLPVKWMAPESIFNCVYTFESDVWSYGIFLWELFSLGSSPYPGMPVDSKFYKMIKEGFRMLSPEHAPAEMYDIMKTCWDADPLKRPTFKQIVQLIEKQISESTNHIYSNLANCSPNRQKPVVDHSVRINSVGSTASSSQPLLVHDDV

MAP3K1 = MAP3K1 (Homo sapiens, UniProt Q13233)
MAP3K15 = biological target: T3, MAP3K15 (Homo sapiens, UniProt Q6ZN16)
T3 sequence (Q6ZN16 1-1313): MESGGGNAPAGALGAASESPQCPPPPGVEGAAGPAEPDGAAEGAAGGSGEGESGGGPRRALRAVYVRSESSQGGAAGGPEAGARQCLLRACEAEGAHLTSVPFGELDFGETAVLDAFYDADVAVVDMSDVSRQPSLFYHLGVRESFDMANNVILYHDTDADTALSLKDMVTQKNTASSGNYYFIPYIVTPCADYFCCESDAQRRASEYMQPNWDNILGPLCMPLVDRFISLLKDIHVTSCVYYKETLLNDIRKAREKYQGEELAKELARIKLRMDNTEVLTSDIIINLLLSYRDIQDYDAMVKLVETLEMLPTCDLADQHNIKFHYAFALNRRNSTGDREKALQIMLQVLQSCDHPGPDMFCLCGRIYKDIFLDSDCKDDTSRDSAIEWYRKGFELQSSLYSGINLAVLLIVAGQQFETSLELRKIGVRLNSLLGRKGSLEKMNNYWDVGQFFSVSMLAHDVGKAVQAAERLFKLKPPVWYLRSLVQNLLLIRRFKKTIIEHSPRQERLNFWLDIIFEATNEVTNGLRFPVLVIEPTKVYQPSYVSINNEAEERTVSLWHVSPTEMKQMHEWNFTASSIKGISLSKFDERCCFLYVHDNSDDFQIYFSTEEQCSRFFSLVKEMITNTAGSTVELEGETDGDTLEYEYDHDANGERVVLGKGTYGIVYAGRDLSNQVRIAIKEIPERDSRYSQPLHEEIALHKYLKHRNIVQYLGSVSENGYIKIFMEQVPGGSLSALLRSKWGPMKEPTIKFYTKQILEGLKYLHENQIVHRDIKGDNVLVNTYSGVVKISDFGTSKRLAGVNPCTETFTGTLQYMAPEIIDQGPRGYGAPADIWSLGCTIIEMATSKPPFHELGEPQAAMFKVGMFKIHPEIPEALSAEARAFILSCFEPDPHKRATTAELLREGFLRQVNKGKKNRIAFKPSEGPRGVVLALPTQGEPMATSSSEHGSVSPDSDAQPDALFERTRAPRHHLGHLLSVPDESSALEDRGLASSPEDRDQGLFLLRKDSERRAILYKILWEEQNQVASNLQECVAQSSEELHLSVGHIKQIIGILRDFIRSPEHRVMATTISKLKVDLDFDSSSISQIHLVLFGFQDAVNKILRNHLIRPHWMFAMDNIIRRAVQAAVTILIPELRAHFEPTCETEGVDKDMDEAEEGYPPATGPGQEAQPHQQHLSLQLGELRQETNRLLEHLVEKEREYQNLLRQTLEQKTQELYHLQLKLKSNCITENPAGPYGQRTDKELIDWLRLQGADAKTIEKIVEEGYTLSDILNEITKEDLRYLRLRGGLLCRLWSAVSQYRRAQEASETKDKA

NEK4 = NEK4 (Homo sapiens, UniProt P51957)
Sequence of NEK4 (P51957 whole entry): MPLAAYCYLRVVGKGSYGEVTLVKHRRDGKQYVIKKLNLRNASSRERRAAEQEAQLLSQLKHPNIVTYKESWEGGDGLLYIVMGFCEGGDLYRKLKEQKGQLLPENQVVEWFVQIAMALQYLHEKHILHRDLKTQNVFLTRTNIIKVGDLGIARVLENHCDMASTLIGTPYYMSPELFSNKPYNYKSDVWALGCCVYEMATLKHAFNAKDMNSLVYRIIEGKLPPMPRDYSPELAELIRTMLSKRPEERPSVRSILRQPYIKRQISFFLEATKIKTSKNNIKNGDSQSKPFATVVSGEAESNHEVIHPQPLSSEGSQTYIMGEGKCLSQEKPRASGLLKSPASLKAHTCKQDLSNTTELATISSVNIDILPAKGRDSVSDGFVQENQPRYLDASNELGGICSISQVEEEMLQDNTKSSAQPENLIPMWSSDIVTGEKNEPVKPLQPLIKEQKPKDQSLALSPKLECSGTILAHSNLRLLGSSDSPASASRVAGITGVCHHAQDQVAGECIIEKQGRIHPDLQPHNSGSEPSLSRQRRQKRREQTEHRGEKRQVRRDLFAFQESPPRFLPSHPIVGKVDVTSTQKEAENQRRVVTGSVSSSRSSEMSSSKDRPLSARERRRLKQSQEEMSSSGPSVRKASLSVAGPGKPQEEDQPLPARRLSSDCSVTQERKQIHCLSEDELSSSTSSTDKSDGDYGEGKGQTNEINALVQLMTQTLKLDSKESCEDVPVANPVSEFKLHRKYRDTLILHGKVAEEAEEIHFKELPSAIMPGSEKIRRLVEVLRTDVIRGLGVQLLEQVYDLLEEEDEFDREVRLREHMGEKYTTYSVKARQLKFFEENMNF

PIK3CA = PIK3CA (Homo sapiens, UniProt P42336)
PIM3 = PIM3 (Homo sapiens, UniProt Q86V86)
PRKR = biological target: T4, PRKR (Homo sapiens, UniProt P19525)
T4 construct: gene EIF2AK2
T4 sequence (P19525 whole entry): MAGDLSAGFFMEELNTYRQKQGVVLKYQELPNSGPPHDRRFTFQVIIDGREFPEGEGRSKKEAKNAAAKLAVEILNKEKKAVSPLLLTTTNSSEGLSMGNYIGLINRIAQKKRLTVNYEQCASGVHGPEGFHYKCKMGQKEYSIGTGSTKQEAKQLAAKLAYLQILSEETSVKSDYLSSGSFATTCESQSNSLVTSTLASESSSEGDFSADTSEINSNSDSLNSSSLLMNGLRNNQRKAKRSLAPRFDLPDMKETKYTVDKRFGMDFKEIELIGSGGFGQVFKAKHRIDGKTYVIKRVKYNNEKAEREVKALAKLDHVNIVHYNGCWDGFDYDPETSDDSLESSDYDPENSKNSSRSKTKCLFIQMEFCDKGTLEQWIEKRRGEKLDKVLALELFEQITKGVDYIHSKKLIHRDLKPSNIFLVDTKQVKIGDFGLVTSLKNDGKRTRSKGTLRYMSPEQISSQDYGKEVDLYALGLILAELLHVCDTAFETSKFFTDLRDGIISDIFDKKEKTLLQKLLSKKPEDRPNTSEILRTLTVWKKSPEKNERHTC

[1] = biological target: T5, RSK1(Kin.Dom.2-C-terminal) (Homo sapiens, UniProt Q15418)
T5 construct: gene RPS6KA1; Kin.Dom.2-C-terminal
T5 sequence (Q15418 whole entry): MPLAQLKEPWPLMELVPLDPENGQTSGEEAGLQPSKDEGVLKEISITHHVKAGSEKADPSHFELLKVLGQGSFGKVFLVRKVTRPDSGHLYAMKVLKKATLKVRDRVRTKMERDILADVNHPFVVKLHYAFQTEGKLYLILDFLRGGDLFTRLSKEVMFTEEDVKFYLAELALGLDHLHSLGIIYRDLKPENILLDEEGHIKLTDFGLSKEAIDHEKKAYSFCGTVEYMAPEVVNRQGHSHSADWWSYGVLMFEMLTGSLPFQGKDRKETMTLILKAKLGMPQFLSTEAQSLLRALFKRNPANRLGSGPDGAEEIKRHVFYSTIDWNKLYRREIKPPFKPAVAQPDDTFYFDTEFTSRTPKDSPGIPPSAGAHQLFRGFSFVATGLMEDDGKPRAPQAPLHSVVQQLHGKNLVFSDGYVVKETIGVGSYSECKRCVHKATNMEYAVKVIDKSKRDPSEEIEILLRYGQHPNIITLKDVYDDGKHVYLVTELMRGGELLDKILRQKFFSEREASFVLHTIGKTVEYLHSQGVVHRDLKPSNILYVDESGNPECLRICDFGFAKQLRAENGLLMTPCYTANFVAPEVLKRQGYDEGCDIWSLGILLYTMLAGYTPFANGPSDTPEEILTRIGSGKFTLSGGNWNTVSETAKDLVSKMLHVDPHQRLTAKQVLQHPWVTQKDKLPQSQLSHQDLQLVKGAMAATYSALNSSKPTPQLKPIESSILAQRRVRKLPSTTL

[2] = biological target: T6, JAK1(JH2domain-pseudokinase) (Homo sapiens, UniProt P23458)
T6 construct: JH2domain-pseudokinase

[3] = read-out: Niraparib (MK-4827) / %Ctrl @ 10000nM
[4] = read-out: Olaparib / %Ctrl @ 10000nM
[5] = read-out: Rucaparib / %Ctrl @ 10000nM, binding competition, % of control
[6] = read-out: Talazoparib (BMN 673) / %Ctrl @ 10000nM

Structure (SMILES): NC(=O)c1cccc2cn(-c3ccc([C@@H]4CCCNC4)cc3)nc12 [Niraparib]
percent of control binding at 10 µM (BMPR1A; [3]): 94%
percent of control binding at 10 µM (CAMKK2; [3]): 81%
percent of control binding at 10 µM (CDK4-cyclinD1; [3]): 82%
percent of control binding at 10 µM (CDKL1; [3]): 94%
percent of control binding at 10 µM (ERK4; [3]): 98%
percent of control binding at 10 µM (KIT(V559D); [3]): 90%
percent of control binding at 10 µM (MAP3K1; [3]): 92%
percent of control binding at 10 µM (MAP3K15; [3]): 64%
percent of control binding at 10 µM (NEK4; [3]): 82%
percent of control binding at 10 µM (PIK3CA; [3]): 100%
percent of control binding at 10 µM (PIM3; [3]): 17%
percent of control binding at 10 µM (PRKR; [3]): 91%
percent of control binding at 10 µM [1, 3]: 93%

percent of control binding at 10 µM (BMPR1A; [4]): 100%
percent of control binding at 10 µM (CAMKK2; [4]): 99%
percent of control binding at 10 µM (CDK4-cyclinD1; [4]): 80%
percent of control binding at 10 µM (CDKL1; [4]): 99%
percent of control binding at 10 µM (ERK4; [4]): 100%
percent of control binding at 10 µM [2, 4]: 91%
percent of control binding at 10 µM (KIT(V559D); [4]): 100%
percent of control binding at 10 µM (MAP3K1; [4]): 91%
percent of control binding at 10 µM (MAP3K15; [4]): 100%
percent of control binding at 10 µM (NEK4; [4]): 80%
percent of control binding at 10 µM (PIK3CA; [4]): 87%
percent of control binding at 10 µM (PIM3; [4]): 99%
percent of control binding at 10 µM (PRKR; [4]): 94%
percent of control binding at 10 µM [1, 4]: 76%
Structure (SMILES): O=C(c1cc(Cc2n[nH]c(=O)c3ccccc23)ccc1F)N1CCN(C(=O)C2CC2)CC1 [Olaparib]

percent of control binding at 10 µM (BMPR1A; [5]): 91%
percent of control binding at 10 µM (CAMKK2; [5]): 70%
percent of control binding at 10 µM (CDK4-cyclinD1; [5]): 25%
percent of control binding at 10 µM (CDKL1; [5]): 84%
percent of control binding at 10 µM (ERK4; [5]): 97%
percent of control binding at 10 µM [2, 5]: 0.8%
percent of control binding at 10 µM (KIT(V559D); [5]): 92%
percent of control binding at 10 µM (MAP3K1; [5]): 98%
percent of control binding at 10 µM (MAP3K15; [5]): 73%
percent of control binding at 10 µM (NEK4; [5]): 82%
percent of control binding at 10 µM (PIK3CA; [5]): 91%
percent of control binding at 10 µM (PRKR; [5]): 76%
percent of control binding at 10 µM [1, 5]: 70%
Structure (SMILES): CNCc1ccc(-c2[nH]c3cc(F)cc4c3c2CCNC4=O)cc1 [Rucaparib]

percent of control binding at 10 µM (BMPR1A; [6]): 100%
percent of control binding at 10 µM (CAMKK2; [6]): 97%
percent of control binding at 10 µM (CDK4-cyclinD1; [6]): 70%
percent of control binding at 10 µM (CDKL1; [6]): 49%
percent of control binding at 10 µM (ERK4; [6]): 100%
percent of control binding at 10 µM [2, 6]: 73%
percent of control binding at 10 µM (KIT(V559D); [6]): 100%
percent of control binding at 10 µM (MAP3K1; [6]): 97%
percent of control binding at 10 µM (MAP3K15; [6]): 100%
percent of control binding at 10 µM (NEK4; [6]): 100%
percent of control binding at 10 µM (PIK3CA; [6]): 59%
percent of control binding at 10 µM (PIM3; [6]): 100%
percent of control binding at 10 µM (PRKR; [6]): 78%
percent of control binding at 10 µM [1, 6]: 100%
Structure (SMILES): Cn1ncnc1[C@H]1c2n[nH]c(=O)c3cc(F)cc(c23)N[C@@H]1c1ccc(F)cc1 [Talazoparib]
